Data taken from ChEMBL document CHEMBL1201862, “PubChem BioAssay data set” (2004).
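Protocol summary: plate cells (96-well), add compound at 5 concentrations, incubate 48 h, interpolate endpoints linearly. At the GI50, growth is halved.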 The source made the active and inactive calls. Rule as the data show it: active = GI50 up to about 1.1 µM and inactive = higher.

Columns and labels:
Experiment in all cases: NCI anticancer screen, dose series, 48 h
MDA-MB-231 = test system: MDA-MB-231
MCF7 = test system: MCF7
SK-OV-3 = test system: SK-OV-3
DU-145 = test system: DU-145
786-0 = test system: 786-0
IGROV-1 = test system: IGROV-1
UO-31 = test system: UO-31
SF-268 = test system: SF-268
NCI-H226 = test system: NCI-H226
NCI/ADR-RES = test system: NCI/ADR-RES
HT-29 = test system: HT-29
Malme-3M = test system: Malme-3M
LOX IMVI = test system: LOX IMVI
CCRF-CEM = test system: CCRF-CEM
SNB-19 = test system: SNB-19
SR = test system: SR
COLO 205 = test system: COLO 205

Measured: GI50

[N-]=[N+]=NCC(=O)c1cnc(O)nc1O
inactive: MDA-MB-231 > 100 µM | MCF7 > 100 µM | SK-OV-3 > 100 µM | DU-145 > 100 µM | 786-0 > 100 µM | IGROV-1 > 100 µM | UO-31 > 100 µM | SF-268 > 100 µM | NCI-H226 > 100 µM | NCI/ADR-RES > 100 µM | HT-29 > 100 µM | Malme-3M > 100 µM | LOX IMVI > 100 µM | CCRF-CEM > 100 µM | SNB-19 > 100 µM | SR > 100 µM | COLO 205 > 100 µM

COc1cccc(C2CC(C)(O)Oc3cc4c(cc32)OCO4)c1 (stereo unspecified)
inactive: MDA-MB-231 24.1 µM | MCF7 17.9 µM | SK-OV-3 16.9 µM | DU-145 31.3 µM | 786-0 33.7 µM | IGROV-1 24 µM | UO-31 23.3 µM | SF-268 30.6 µM | NCI-H226 17.3 µM | NCI/ADR-RES 16.3 µM | HT-29 7.26 µM | Malme-3M 26.2 µM | LOX IMVI 22.3 µM | CCRF-CEM 47.8 µM | SNB-19 32.6 µM | SR 4.58 µM | COLO 205 20.7 µM

NNC(=O)CC(=O)Nc1cccc(Cl)c1
inactive: MDA-MB-231 > 100 µM | MCF7 > 100 µM | SK-OV-3 > 100 µM | DU-145 > 100 µM | 786-0 > 100 µM | IGROV-1 > 100 µM | UO-31 > 100 µM | SF-268 > 100 µM | NCI-H226 > 100 µM | NCI/ADR-RES 2.21 µM | HT-29 > 100 µM | Malme-3M > 100 µM | LOX IMVI > 100 µM | CCRF-CEM > 100 µM | SNB-19 > 100 µM | SR > 100 µM | COLO 205 > 100 µM

CCOC(=O)C(=O)/C(=C/N1C(=O)CC(=O)NC1=S)C(=O)OCC
inactive: MDA-MB-231 > 100 µM | MCF7 > 100 µM | SK-OV-3 > 100 µM | DU-145 > 100 µM | 786-0 > 100 µM | IGROV-1 > 100 µM | UO-31 26.8 µM | SF-268 > 100 µM | NCI-H226 > 100 µM | NCI/ADR-RES > 100 µM | HT-29 > 100 µM | Malme-3M > 100 µM | LOX IMVI > 100 µM | CCRF-CEM > 100 µM | SNB-19 > 100 µM | SR > 100 µM | COLO 205 > 100 µM

COC(=O)C([C@H]1CC[C@H](OCc2ccccc2)[C@@]1(O)COCc1ccccc1)C(C)(O)CCc1ccccc1 (stereo partly specified)
inactive: MDA-MB-231 12 µM | MCF7 10.1 µM | SK-OV-3 27.1 µM | DU-145 24.2 µM | 786-0 12.9 µM | IGROV-1 10.9 µM | UO-31 10.7 µM | SF-268 4.01 µM | NCI-H226 11.8 µM | NCI/ADR-RES 4.06 µM | HT-29 4.55 µM | Malme-3M 11.5 µM | LOX IMVI 8.47 µM | CCRF-CEM 6.92 µM | SNB-19 26.5 µM | SR 5.43 µM | COLO 205 12.2 µM

COC(=O)[C@@H]1C[C@H]([Se]c2ccccc2)CN1S(=O)(=O)c1ccc(C)cc1
inactive: MDA-MB-231 > 100 µM | MCF7 60.3 µM | SK-OV-3 > 100 µM | DU-145 > 100 µM | 786-0 > 100 µM | IGROV-1 > 100 µM | UO-31 51.9 µM | SF-268 27.9 µM | NCI-H226 > 100 µM | NCI/ADR-RES 34.1 µM | HT-29 49.7 µM | Malme-3M > 100 µM | LOX IMVI > 100 µM | CCRF-CEM 61 µM | SNB-19 > 100 µM | SR 32.1 µM | COLO 205 61.5 µM

O=C(N/N=C1/C(=O)c2c3ccccc3cc3cccc1c23)c1ccccc1
inactive: MDA-MB-231 42.4 µM | MCF7 30.4 µM | SK-OV-3 31.8 µM | DU-145 4.49 µM | 786-0 19.1 µM | IGROV-1 25.4 µM | UO-31 30.9 µM | SF-268 30 µM | NCI-H226 > 43.8 µM | NCI/ADR-RES 40 µM | HT-29 30.2 µM | Malme-3M 33.5 µM | LOX IMVI 37.9 µM | CCRF-CEM > 53.1 µM | SNB-19 35.8 µM | SR > 58.6 µM | COLO 205 > 65.6 µM

O=C1O[C@H]2[C@@H]3OC(=O)c4cc(O)c(O)c(O)c4-c4c(cc(O)c(O)c4O)C(=O)OC[C@H]2O[C@@H](OC(=O)c2cc(O)c(O)c(O)c2)[C@@H]3OC(=O)c2cc(O)c(O)c3c2[C@@H]2C1=CC(=O)C(O)(O)C2(O)O3 (stereo partly specified)
inactive: MDA-MB-231 19.8 µM | MCF7 25.2 µM | SK-OV-3 11 µM | DU-145 47 µM | 786-0 18.1 µM | IGROV-1 52.8 µM | UO-31 21.7 µM | SF-268 74.1 µM | NCI-H226 23.2 µM | NCI/ADR-RES 39.3 µM | HT-29 16.5 µM | Malme-3M 84.9 µM | LOX IMVI 13.3 µM | CCRF-CEM 27 µM | SNB-19 76.9 µM | SR 29 µM | COLO 205 25.9 µM
